Data as given in ChEMBL document CHEMBL5104129, “Discovery of a novel 2-spiroproline steroid mimetic scaffold for the potent inhibition of 11β-HSD1” (Bioorg Med Chem Lett, 2022).

Experiments:
[1] = target: T1, 11-beta-hydroxysteroid dehydrogenase 1 (Homo sapiens, UniProt P28845); assay: Inhibition of 11beta-HSD1 (unknown origin) using 3H-cortisone as substrate by scintillation proximity assay
[2] = target: T1, 11-beta-hydroxysteroid dehydrogenase 1; assay: Inhibition of 11beta-HSD1 in human PBMC cells using 3H-cortisone as substrate assessed as conversion of cortisone to cortisol by ELISA; assay type: cell-based
hERG (KCNH2) = hERG (KCNH2) (Homo sapiens, UniProt Q12809); assay: Inhibition of human ERG expressed in CHO cells at 30 uM at -80 mV holding potential by automated patch clamp assay relative to control; assay type: toxicity, cell-based; settings: CHO cells expressing human ERG
PXR (NR1I2) [3] = target: T2, PXR (NR1I2) (Homo sapiens, UniProt O75469); assay: Activation of human PXR assessed as induction of PXR activity at 10 uM relative to control; settings: read-out: Activity
T2 sequence (O75469 whole entry): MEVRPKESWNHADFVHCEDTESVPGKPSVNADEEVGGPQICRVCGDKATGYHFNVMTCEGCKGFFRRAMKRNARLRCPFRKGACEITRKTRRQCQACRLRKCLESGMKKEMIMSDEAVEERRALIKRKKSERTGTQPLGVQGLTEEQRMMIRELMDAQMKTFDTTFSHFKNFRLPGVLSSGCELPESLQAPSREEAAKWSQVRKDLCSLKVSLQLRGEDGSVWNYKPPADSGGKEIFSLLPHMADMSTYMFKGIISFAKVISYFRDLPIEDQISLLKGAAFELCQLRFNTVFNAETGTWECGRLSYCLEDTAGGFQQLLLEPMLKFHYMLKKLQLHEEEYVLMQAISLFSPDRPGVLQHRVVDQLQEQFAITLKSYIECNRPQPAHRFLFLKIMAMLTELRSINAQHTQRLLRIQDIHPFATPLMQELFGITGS

PXR (NR1I2) [4] = target: T3, PXR (NR1I2) (Rattus norvegicus, UniProt Q9R1A7); assay: Activation of rat PXR assessed as induction of PXR activity at 10 uM relative to control; settings: read-out: Activity
T3 sequence (Q9R1A7 whole entry): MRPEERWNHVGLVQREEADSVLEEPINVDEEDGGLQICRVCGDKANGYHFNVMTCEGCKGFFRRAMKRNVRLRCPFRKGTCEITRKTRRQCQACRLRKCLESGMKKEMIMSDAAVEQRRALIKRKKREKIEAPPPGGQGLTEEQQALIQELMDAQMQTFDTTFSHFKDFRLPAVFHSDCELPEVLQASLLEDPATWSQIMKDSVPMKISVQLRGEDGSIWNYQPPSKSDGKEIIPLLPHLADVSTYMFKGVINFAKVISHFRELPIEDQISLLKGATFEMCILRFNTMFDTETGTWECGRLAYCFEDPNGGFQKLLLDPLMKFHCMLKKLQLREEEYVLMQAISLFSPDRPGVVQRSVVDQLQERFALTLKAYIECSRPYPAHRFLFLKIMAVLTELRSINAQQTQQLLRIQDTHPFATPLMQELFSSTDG

[5] = target: T1, 11-beta-hydroxysteroid dehydrogenase 1; assay: Inhibition of 11beta-HSD1 (unknown origin)

Chain of hERG (KCNH2) (Q12809 whole entry): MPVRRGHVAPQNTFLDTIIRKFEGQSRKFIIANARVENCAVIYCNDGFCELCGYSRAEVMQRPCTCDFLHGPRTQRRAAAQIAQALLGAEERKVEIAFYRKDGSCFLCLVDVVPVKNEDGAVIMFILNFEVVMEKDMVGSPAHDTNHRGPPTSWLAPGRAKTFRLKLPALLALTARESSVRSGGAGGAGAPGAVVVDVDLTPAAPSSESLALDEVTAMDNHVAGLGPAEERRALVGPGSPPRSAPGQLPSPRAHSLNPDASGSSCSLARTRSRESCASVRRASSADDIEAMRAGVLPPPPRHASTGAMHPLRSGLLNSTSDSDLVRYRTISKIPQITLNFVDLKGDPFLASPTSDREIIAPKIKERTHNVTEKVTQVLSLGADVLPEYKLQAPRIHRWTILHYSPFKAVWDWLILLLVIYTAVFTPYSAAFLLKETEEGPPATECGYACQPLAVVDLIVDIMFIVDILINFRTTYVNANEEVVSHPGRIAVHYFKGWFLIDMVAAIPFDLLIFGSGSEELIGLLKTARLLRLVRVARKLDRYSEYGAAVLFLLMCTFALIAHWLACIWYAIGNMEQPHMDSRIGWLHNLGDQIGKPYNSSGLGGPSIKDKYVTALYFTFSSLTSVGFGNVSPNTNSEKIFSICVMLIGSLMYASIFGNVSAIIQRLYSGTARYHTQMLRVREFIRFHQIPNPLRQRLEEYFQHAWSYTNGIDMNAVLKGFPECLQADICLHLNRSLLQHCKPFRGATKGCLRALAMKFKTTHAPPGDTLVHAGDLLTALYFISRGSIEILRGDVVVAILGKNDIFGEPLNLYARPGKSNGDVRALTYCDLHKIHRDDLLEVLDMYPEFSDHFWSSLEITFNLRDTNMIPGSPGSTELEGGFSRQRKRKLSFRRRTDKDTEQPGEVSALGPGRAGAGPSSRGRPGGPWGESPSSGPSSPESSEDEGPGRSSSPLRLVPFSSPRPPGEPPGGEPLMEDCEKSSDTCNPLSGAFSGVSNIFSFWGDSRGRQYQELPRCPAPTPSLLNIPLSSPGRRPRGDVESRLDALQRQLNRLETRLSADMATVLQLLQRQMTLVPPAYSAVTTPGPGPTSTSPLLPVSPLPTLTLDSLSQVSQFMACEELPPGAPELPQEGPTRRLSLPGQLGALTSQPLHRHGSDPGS
T1 sequence (P28845 whole entry): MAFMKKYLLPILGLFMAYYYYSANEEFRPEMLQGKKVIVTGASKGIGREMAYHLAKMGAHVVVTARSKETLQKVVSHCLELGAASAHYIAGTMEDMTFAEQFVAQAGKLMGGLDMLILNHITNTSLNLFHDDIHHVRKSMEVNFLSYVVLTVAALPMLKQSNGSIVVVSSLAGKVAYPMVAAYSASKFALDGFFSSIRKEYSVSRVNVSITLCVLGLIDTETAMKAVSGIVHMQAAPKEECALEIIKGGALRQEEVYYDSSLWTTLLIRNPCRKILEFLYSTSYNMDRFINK

Structure (SMILES)	IC50 [1]	IC50 [2]	inhibition at 30 µM (hERG (KCNH2))	activity at 10 µM (PXR (NR1I2) [3])	activity at 10 µM (PXR (NR1I2) [4])	IC50 [5]
O=C1N(C2CCCCC2)CCC12CCCN2CC1CCOC1 (stereo not drawn)	460 nM					
O=C1N(C2CCCCC2)CC[C@]12C[C@@H](O)CN2Cc1ccc(-c2ccc(F)cc2)nc1	80 nM	> 37 nM				
O=C1N(C2CCCCC2)CCC12CCCN2C1CCC1 (stereo not drawn)	> 1000 nM					
O=C1N(C2CCCCC2)CC[C@]12C[C@@H](O)CN2Cc1ccc(Cl)cc1	6 nM	6.2 nM	14%	42%	16%	
CC(C)CN1CCCC12CCN(C13CC4CC(CC(C4)C1)C3)C2=O (stereo not drawn)	400 nM					
CC(C1CC1)N1C[C@H](O)C[C@]12CCN(C1CCCCC1)C2=O (stereo partly drawn)	400 nM	> 37 nM	-10%	1%	2%	
O=C1N([C@H]2CC[C@H](O)CC2)CCC12CCCN2Cc1ccc(Cl)cc1 (stereo partly drawn)	30 nM		13%	0.5%	2%	
O=C1N(c2ccccc2Cl)CCC12CCCN2CC1CC1 (stereo not drawn)	500 nM					
CCNC(=O)c1ccc(-c2cccc(CN3C[C@H](O)C[C@]34CCN(C3CCCCC3)C4=O)c2)cn1	227 nM	> 37 nM				
N#Cc1ccc(-c2ccc(CN3C[C@H](O)C[C@]34CCN(C3CCCCC3)C4=O)cn2)cc1	18 nM	35 nM				
CC1(O)CN(Cc2ccc(Cl)cc2)[C@@]2(CCN(C3CCCCC3)C2=O)C1 (stereo partly drawn)	999 nM	> 37 nM	13%	9.5%	41%	
O=C(c1ccccn1)N1CCCC12CCN(C1CCCCC1)C2=O (stereo not drawn)	> 1000 nM					
O=C1N(C2CCCCC2)CCC12C[C@@H](O)CN2Cc1ccc(Cl)cc1 (stereo partly drawn)	7 nM		27%	18%	10%	
O=C1N(C2CCCCC2)CCC12CCCN2Cc1ccccn1 (stereo not drawn)	63 nM					
O=C1N(C2CCCCC2)CC[C@]12C[C@@H](O)CN2CC1CCCC1	30 nM					
O=C1N(C2CCCCC2)CC[C@]12C[C@@H](O)CN2CC1CCCCC1	15 nM	7 nM	8.1%	9%	14%	
O=C1N(C23CC4CC(CC(C4)C2)C3)CCC12CCCN2Cc1ccccn1 (stereo not drawn)	134 nM					
O=C1N(C2CCCCC2)CC[C@]12C[C@H](F)CN2Cc1ccc(Cl)cc1	2 nM	5.1 nM	52%	48%	123%	
CNC(=O)c1ccc(-c2ccc(CN3C[C@H](O)C[C@]34CCN(C3CCCCC3)C4=O)cc2F)cn1	13 nM	9.5 nM				
CC(C1CCC1)N1C[C@H](O)C[C@]12CCN(C1CCCCC1)C2=O (stereo partly drawn)	7 nM	3.9 nM	-15%	4.5%	9%	
O=C1N(C2CCCCC2)CC[C@@]12C[C@H](O)CN2Cc1ccc(Cl)cc1	> 1000 nM	> 37 nM	-4.3%	52%	12%	
CCNC(=O)c1ccc(-c2cc(CN3C[C@H](O)C[C@]34CCN(C3CCCCC3)C4=O)ccc2F)cn1	62 nM	> 37 nM				
CNC(=O)c1ccc(-c2ccc(CN3C[C@@H](F)C[C@]34CCN(C3CCCCC3)C4=O)cc2)cn1	2 nM	5.9 nM	49%	14%	24%	
N#Cc1ccc(CN2CCCC23CCN(C2CCCCC2)C3=O)cc1 (stereo not drawn)	29 nM					
CNC(=O)c1ccc(-c2ccc(CN3C[C@H](O)C[C@]34CCN(C3CCCCC3)C4=O)cc2)cn1	3 nM	7.2 nM	-14%	-0.3%	-0.3%	
O=C(NC12CC3CC(CC(C3)C1)C2)[C@H]1CCCN1Cc1ccccn1						12 nM

Structure (SMILES)	IC50 [1]	IC50 [2]	inhibition at 30 µM (hERG (KCNH2))	activity at 10 µM (PXR (NR1I2) [3])	activity at 10 µM (PXR (NR1I2) [4])	IC50 [5]
CN(C)C(=O)c1ccc(-c2ccc(CN3C[C@H](O)C[C@]34CCN(C3CCCCC3)C4=O)cc2)cn1	35 nM					
O=C1N(C2CCCCC2)CCC12CCCN2CC1CC1 (stereo not drawn)	134 nM					
O=C1N(C2CCCCC2)CC[C@]12C[C@@H](O)CN2C1CCCC1	351 nM					
O=C1N(C2CCCCC2)CCC12CCCN2Cc1ccc(C(F)(F)F)cc1 (stereo not drawn)	7 nM		27%	80%	12%	
CC(C)NC(=O)c1ccc(-c2ccc(CN3C[C@H](O)C[C@]34CCN(C3CCCCC3)C4=O)cc2F)cn1	5 nM	4.9 nM				
N#Cc1cncc(-c2ccc(CN3C[C@H](O)C[C@]34CCN(C3CCCCC3)C4=O)cc2)c1	188 nM					
O=C1N(C2CCCCC2)CCC12CCCN2Cc1ccc(Cl)cc1 (stereo not drawn)	8 nM		45%	46%	22%	
O=C1N(C2CCCC2)CCC12CCCN2Cc1ccc(Cl)cc1 (stereo not drawn)	26 nM					
O=C1N(C2CCCCC2)CCC12CCCN2Cc1cccc(C(F)(F)F)c1 (stereo not drawn)	40 nM					
N#Cc1ccc(-c2ccc(CN3C[C@H](O)C[C@]34CCN(C3CCCCC3)C4=O)nc2)cc1	230 nM					
N#Cc1ccnc(-c2ccc(CN3C[C@H](O)C[C@]34CCN(C3CCCCC3)C4=O)cc2)c1	35 nM					
O=C1N(C2CCCCCC2)CCC12CCCN2Cc1ccc(Cl)cc1 (stereo not drawn)	7 nM					
O=C1N(C23CC4CC(CC(C4)C2)C3)CCC12CCCN2CC1CCCC1 (stereo not drawn)	51 nM					
O=C1N(C2CCOCC2)CCC12CCCN2Cc1ccc(Cl)cc1 (stereo not drawn)	45 nM					
O=C1N(C2CCCCC2)CCC12CCCN2Cc1ccccc1C(F)(F)F (stereo not drawn)	15 nM					
CCN1C[C@@H](O)C[C@]12CCN(C1CCCCC1)C2=O	15 nM	21 nM	11%	56%	28%	
O=C1N(C2CCCCC2)CCC12CCCN2CC1CCCC1 (stereo not drawn)	36 nM					
CC(C)N1C[C@H](O)C[C@]12CCN(C1CCCCC1)C2=O	> 1000 nM	> 37 nM	0%	-0.5%	-0.5%	
CCNC(=O)c1ccc(-c2ccc(CN3CCCC34CCN(C3CCCCC3)C4=O)cc2)cn1 (stereo not drawn)	23 nM		15%	13%	31%	
O=C1N(C23CC4CC(CC(C4)C2)C3)CCC12CCCN2c1ccc(C(F)(F)F)cn1 (stereo not drawn)	> 1000 nM					
N#Cc1cccc(-c2ccc(CN3C[C@H](O)C[C@]34CCN(C3CCCCC3)C4=O)cn2)c1	92 nM	> 37 nM				
CC(C)CN1CCC[C@@H]1C(=O)NC1CCCCC1						9 nM
CC(C1CCCCC1)N1C[C@H](O)C[C@]12CCN(C1CCCCC1)C2=O (stereo partly drawn)	5 nM	1.9 nM	14%	10%	58%	
CNC(=O)c1ccc(-c2ccc(CN3C[C@H](O)C[C@]34CCN(C3CCCCC3)C4=O)c(F)c2)cn1	9 nM	17 nM				
O=C1N(C2CCCCC2)CC[C@]12C[C@@H](O)CN2Cc1ccc(-c2ccncc2)cc1	7 nM	6.6 nM				
